Assay results reported in article PMC10300102, “In vivo inhibition of nuclear ACE2 translocation protects against SARS-CoV-2 replication and lung damage through epigenetic imprinting” (Nature Communications, 2023).
“And” between values parts separate entries of the source, which are not always exact repeats. Equal values may be shown once. Where a SMILES comes first, the peptide text is derived from it. The star is where a group is joined. Myristoyl = CCCCCCCCCCCCCC(=O)*

Tests used:
H3K27ac in CD14+ PBMCs = test: H3K27ac nuclear fluorescence intensity and clock scan in CD14+ PBMCs; type: cell-based, human; conditions: CD14+ PBMCs of PB and PI patients
SARS-CoV-2 = system: SARS-CoV-2; design: species or system golden Syrian hamsters; conditions: hamster, in vivo
[1] = system: lung bronchiole and alveoli cell types; test: Cell type deconvolution analysis of NanoString DSP data; type: in vivo, golden Syrian hamsters; design: cell type proportion: macrophages: unit not given here; conditions: for cell type proportion: B / cell type proportion: NK / cell type proportion: T / cell type proportion: Treg / cell type proportion: endothelial / cell type proportion: fibroblasts / cell type proportion: mDCs / cell type proportion: macrophages / cell type proportion: mast / cell type proportion: monocytes / cell type proportion: neutrophils / cell type proportion: pDCs / cell type proportion: plasma: individual ROIs of H023 and H017
Protocol: Cell type deconvolution analysis was performed using R package SpatialDecon[68]. The Q3 normalized count matrix from NanoString DSP data and the safeTME[68] immune cell profile matrix were used as the query and reference input, respectively, to reveal cell type abundance within each of the selected ROIs. Cell type proportion for each selected ROI was visualized using a stack bar plot, where ROIs were grouped by tissue region (bronchioles vs. alveoli) and experimental condition (control and NACE2i-treated samples). In addition, given the non-normal distribution of the data, the Wilcoxon test was performed to compare each cell type proportion in controls against NACE2i-treated ROIs. The distribution of each cell type and p-value for the comparisons were visualized in box plots.

[2] = target: T1, ACE2-IMPα interactions in H1299 cells (Homo sapiens, UniProt P52294); test: Duolink proximity ligation assay; type: cell-based; conditions: 0.0015, 0.0977 and 6.25 µM
T1 construct: endogenous in cells; host or cells: NCI-H1299
Protocol: The Duolink proximity ligation assay was used with PLA probe anti-mouse PLUS (DUO92001), PLA probe anti-rabbit MINUS (DUO92005), and the Duolink In Situ Detection Reagent Red kit (DUO92008) (Sigma-Aldrich). Cells were fixed, permeabilized, and incubated with primary ACE2 antibodies targeting the NLS region and IMPα1 (staining conditions are shown in Supplementary Table 4). Cells were processed according to the manufacturer’s instructions. Finally, coverslips were mounted onto slides and examined as above. Image segmentation and analysis were carried out using QuPath open software (version 0.4.3) for bioimage analysis[64] with a custom script. An analysis workflow was developed with the following steps: (i) threshold-based cell detection using DAPI staining to create a mask for detected nuclei along with a 5 µm cell expansion setting to denote the cell cytoplasm boundary; and (ii) use of the QuPath subcellular detection module to detect the Duolink-positive spots in the Alexa Fluor 555 channel in each cell. The two functions were wrapped in a script to allow for batch analysis of images and data export. Total dots were counted per cell and then averaged for each cell and experimental group; approximately 100 cells were counted per group.

[3] = system: NFACT1, C-Rel, ACE2, pPKC-zeta, Nurr1/Nur77, HDAC1 or NFKB p50; type: cell-based; conditions: Fig. 1d
ACE2 = target: T2, ACE2 (Homo sapiens, UniProt Q9BYF1); test: ACE2 activity assay in Caco2 cell lysates; type: biochemical; conditions: Caco2 cells treated 50 µM 24 h, fluorometric kit, n = 3 technical replicates
T2 construct: endogenous in cells; host or cells: Caco2
Protocol: Caco2 cells were seeded in T75 flasks using complete DMEM medium as above. Cells were treated with NACEi2 (50 µM) for 24 h. 1 × 10^6 cells were harvested, and the ACE2 activity assay was performed using the ACE2 Activity Assay Kit (Fluorometric) (ab273297, Abcam, Cambridge, UK) following the manufacturer’s instructions. ACE2 positive control with diluted ACE2 inhibitor was used as a negative control, and cell lysate with lysis buffer only was used as the background control. Fluorescence (Ex/Em = 320/420 nm) was measured in kinetic mode for 30 min (5 min intervals) at room temperature with a Biotek Synergy H4 Multimode Scanner.

[4] = design: species or system golden Syrian hamsters; conditions: hamster, in vivo

T1 sequence (P52294 whole entry): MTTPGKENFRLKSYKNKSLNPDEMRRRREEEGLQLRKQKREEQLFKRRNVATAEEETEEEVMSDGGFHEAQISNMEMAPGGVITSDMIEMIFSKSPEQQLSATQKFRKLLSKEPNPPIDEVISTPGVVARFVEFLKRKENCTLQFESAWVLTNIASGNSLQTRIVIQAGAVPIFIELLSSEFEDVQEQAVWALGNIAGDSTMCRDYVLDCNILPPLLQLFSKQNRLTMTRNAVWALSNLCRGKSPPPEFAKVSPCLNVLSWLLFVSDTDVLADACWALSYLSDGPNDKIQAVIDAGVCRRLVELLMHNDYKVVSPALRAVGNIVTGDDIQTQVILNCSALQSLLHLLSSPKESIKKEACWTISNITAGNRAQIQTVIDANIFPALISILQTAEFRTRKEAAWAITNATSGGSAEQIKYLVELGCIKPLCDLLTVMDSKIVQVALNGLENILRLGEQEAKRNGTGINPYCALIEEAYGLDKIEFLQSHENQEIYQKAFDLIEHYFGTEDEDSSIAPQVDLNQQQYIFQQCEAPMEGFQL
T2 sequence (Q9BYF1 18-805): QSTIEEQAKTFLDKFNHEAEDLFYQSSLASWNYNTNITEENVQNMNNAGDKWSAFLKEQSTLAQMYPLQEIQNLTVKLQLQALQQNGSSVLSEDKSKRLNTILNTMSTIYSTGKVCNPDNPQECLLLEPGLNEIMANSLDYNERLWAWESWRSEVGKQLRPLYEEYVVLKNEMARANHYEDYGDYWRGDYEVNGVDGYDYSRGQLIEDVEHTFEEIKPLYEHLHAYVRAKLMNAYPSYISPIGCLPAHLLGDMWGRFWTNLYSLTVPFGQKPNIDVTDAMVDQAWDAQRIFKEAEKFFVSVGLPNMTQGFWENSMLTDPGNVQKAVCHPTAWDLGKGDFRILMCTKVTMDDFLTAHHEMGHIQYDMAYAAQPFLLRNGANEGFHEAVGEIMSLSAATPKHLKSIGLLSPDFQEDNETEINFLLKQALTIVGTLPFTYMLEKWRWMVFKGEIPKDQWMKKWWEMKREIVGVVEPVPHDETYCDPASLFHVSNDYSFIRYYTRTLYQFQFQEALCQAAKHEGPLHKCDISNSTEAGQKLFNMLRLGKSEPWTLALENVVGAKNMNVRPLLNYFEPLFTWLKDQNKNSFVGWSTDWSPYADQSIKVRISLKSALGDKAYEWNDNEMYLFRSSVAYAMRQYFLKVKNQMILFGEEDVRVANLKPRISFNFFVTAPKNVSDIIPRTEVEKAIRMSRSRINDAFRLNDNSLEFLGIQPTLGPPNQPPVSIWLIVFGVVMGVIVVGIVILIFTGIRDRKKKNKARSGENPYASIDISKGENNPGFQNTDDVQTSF

SMILES: CCCCCCCCCCCCCC(=O)N[C@H](C(=O)NCC(=O)N[C@H](C(=O)N[C@@H](CCCNC(=N)N)C(=O)N[C@@H](CC(=O)O)C(=O)N[C@@H](CCCNC(=N)N)C(=O)N[C@@H](CCCCN)C(=O)N[C@@H](CCCCN)C(=O)N[C@@H](CCCCN)C(=O)N[C@@H](CC(N)=O)C(=O)N[C@@H](CCCCN)C(=O)N[C@@H](C)C(=O)N[C@@H](CCCNC(=N)N)C(=O)N[C@@H](CO)C(=O)O)[C@@H](C)CC)[C@@H](C)O [NACE2i] (Myristoyl-TGIRDRKKKNKARS-OH)
- H3K7ac mark (H3K27ac in CD14+ PBMCs): successfully induced
- lung infectious titers (TCID50) (SARS-CoV-2): significantly reduced
- cell type proportion: B ([1]; Alveoli_NACE2i): 23.6847 and 32.4439 and 22.6247 and 29.4388 and 26.4374 and 25.048 and 27.5277 and 28.9903 and 27.2409 and 34.2892 and 28.9637 and 28.8675
- cell type proportion: NK ([1]; Alveoli_NACE2i): 17.1939 and 16.5847 and 20.9543 and 18.0108 and 22.2943 and 18.4617 and 20.087 and 18.6524 and 17.3616 and 14.6317 and 17.3619 and 17.6717
- cell type proportion: T ([1]; Alveoli_NACE2i): 16.6413 and 6.4009 and 15.4997 and 7.4175 and 8.025 and 5.045 and 6.1551 and 0 (2×) and 10.2833 and 5.973 and 3.9643
- cell type proportion: Treg ([1]; Alveoli_NACE2i): 0 (6×) and 1.553 and 8.1921 and 4.323 and 1 and 11.0807 and 5.06
- cell type proportion: endothelial ([1]; Alveoli_NACE2i): 28.1806 and 29.4553 and 29.583 and 29.8626 and 25.5168 and 33.6067 and 33.1024 and 36.1595 and 33.2493 and 33.1189 and 27.1461 and 36.2683
- cell type proportion: fibroblasts ([1]; Alveoli_NACE2i): 1.176 and 0.714 and 0.4633 and 0.8459 and 0.7981 and 0.4825 and 0.7109 and 0.76 and 1.098 and 0.6031 and 0.7444 and 1.019
- cell type proportion: mDCs ([1]; Alveoli_NACE2i): 0 (10×) and 0.2521 and 0.6557
- cell type proportion: macrophages ([1]; Alveoli_NACE2i): 5.388 and 3.326 and 1.773 and 2.095 and 8.024 and 0.205 and 7.196 and 5.143 and 2.92 and 3.5372 and 2.755 and 4.269
- cell type proportion: mast ([1]; Alveoli_NACE2i): 3.016 and 2.78 and 3.108 and 4.739 and 2.682 and 3.555 and 2.55 and 3.279 and 2.68 and 3.582 and 4.658 and 2.8819
- cell type proportion: monocytes ([1]; Alveoli_NACE2i): 0.03537 and 0 (11×)
- cell type proportion: neutrophils ([1]; Alveoli_NACE2i): 1.753 and 2.9035 and 1.994 and 3.2852 and 1.817 and 0.9729 and 2.361 and 0.2488 and 2.135 and 0.8335 and 0.7054 and 0.8644
- cell type proportion: pDCs ([1]; Alveoli_NACE2i): 0
- cell type proportion: plasma ([1]; Alveoli_NACE2i): 2.932 and 5.391 and 3.999 and 2.753 and 4.405 and 4.431 and 0.3105 and 2.193 and 2.376 and 2.431 and 2.621 and 3.0985
- cell type proportion: B ([1]; Bronchiole_NACE2i): 0 (4×) and 36.4151 and 8.716 and 15.9886 and 32.8168 and 11.1034 and 35.5652 and 45.4372 and 7.351
- cell type proportion: NK ([1]; Bronchiole_NACE2i): 23.9964 and 22.2229 and 20.8895 and 32.9425 and 10.1656 and 15.473 and 6.835 and 10.348 and 25.7402 and 11.1678 and 15.6048 and 32.6588
- cell type proportion: T ([1]; Bronchiole_NACE2i): 18.2436 and 18.4266 and 38.1438 and 0 (3×) and 5.53 and 45.4382 and 35.2758 and 13.8104 and 20.1994 and 29.1879
- cell type proportion: Treg ([1]; Bronchiole_NACE2i): 0 (5×) and 21.836 and 33.8509 and 20.1505 and 4.85 and 5.947 and 12.5635 and 16.1845
- cell type proportion: endothelial ([1]; Bronchiole_NACE2i): 16.4013 and 5.225 and 10.2999 and 2.966 and 17.2008 and 10.2265 and 6.188 and 5.584 and 8.968 and 11.6958 and 12.5764 and 14.8185
- cell type proportion: fibroblasts ([1]; Bronchiole_NACE2i): 2.825 and 0.8593 and 2.185 and 1.129 and 1.957 and 1.105 and 1.635 and 0.3982 and 0.8306 and 1.6 and 2.113 and 2.3944
- cell type proportion: mDCs ([1]; Bronchiole_NACE2i): 0 (10×) and 0.9775 and 1.142
- cell type proportion: macrophages ([1]; Bronchiole_NACE2i): 5.529 and 0 and 0.1628 and 4.651 and 2.104 and 14.1819 and 29.1261 and 22.5397 and 28.7793 and 1.462 and 3.082 and 5.048
- cell type proportion: mast ([1]; Bronchiole_NACE2i): 7.052 and 8.207 and 2.9723 and 2.068 and 4.233 and 1.198 and 2.171 and 3.272 and 0 and 1.897 and 1.1071 and 8.014
- cell type proportion: monocytes ([1]; Bronchiole_NACE2i): 0 (11×) and 0.2701
- cell type proportion: neutrophils ([1]; Bronchiole_NACE2i): 9.945 and 11.5606 and 12.9563 and 15.2877 and 1.922 and 0 and 1.136 and 5.344 and 0.585 and 0.3256 and 4.512 and 3.83
- cell type proportion: pDCs ([1]; Bronchiole_NACE2i): 0.5957 and 4.06 and 4.2347 and 0 (6×) and 1.875 and 1.074 and 1.693
- cell type proportion: plasma ([1]; Bronchiole_NACE2i): 15.4112 and 7.333 and 8.156 and 7.105 and 0.3226 and 1.788 and 1.644 and 1.037 and 2.72 and 1.151 and 2.026 and 6.866
- NK cells in bronchiolar regions ([1]; infected hamsters 2 dpi): increased
- macrophages in bronchiolar regions ([1]; infected hamsters 2 dpi): significantly decreased
- ACE2-IMPα interactions (Duolink) [2]: significantly inhibited ACE2-IMPα interactions in a dose-dependent manner
- selectivity for nuclear ACE2 versus other nuclear proteins of the importin pathway (NFI) [3]: specifically targets nuclear ACE2 and not other nuclear proteins
- ACE2 enzymatic activity (ACE2): no impact
- decrease in mean body weights [4]: lower than vehicle controls
